Measured values taken from the NIST ThermoML archive (doi:10.1021/acs.jced.6b00542).
± gives the expanded uncertainty stated by the source.

Assay: xn = mol fraction of the nth substance listed
Details: Liquid; for mass density / viscosity: 102 kPa; for mass density: Vibrating tube method; for speed of sound: 100 kPa, Frequency=3 MHz, Sing-around technique in a fixed-path interferometer; for viscosity: Concentric cylinders viscometry

CCCCc1ccccc1 [butylbenzene] + CCCCCCCCCC
Details	mass density, 323.15 K [kg/m3]	mass density, 333.15 K [kg/m3]	mass density, 343.15 K [kg/m3]	speed of sound, 333.15 K [m/s]	viscosity, 333.15 K [mPa·s]	viscosity, 343.15 K [mPa·s]
x1 = 0.1055	717.94 ± 0.17	710.17 ± 0.18	702.3 ± 0.3	1105.6 ± 1	0.547 ± 0.006	0.488 ± 0.006
x1 = 0.2096	729.23 ± 0.17	721.43 ± 0.17	713.5 ± 0.3	1113.2 ± 0.9	0.549 ± 0.006	0.492 ± 0.006
x1 = 0.3124	740.92 ± 0.16	733.08 ± 0.16	725.1 ± 0.3	1121.2 ± 0.9	0.555 ± 0.006	0.496 ± 0.006
x1 = 0.4141	753.07 ± 0.15	745.19 ± 0.15	737.2 ± 0.3	1129.9 ± 0.9	0.56 ± 0.006	0.502 ± 0.006
x1 = 0.5145	765.64 ± 0.15	757.73 ± 0.15	749.7 ± 0.2	1139.3 ± 0.9	0.568 ± 0.006	0.509 ± 0.006
x1 = 0.614	778.75 ± 0.14	770.8 ± 0.14	762.7 ± 0.2	1149.5 ± 0.9	0.577 ± 0.006	0.518 ± 0.006
x1 = 0.712	792.31 ± 0.13	784.32 ± 0.14	776.1 ± 0.2	1160.7 ± 0.9	0.589 ± 0.006	0.528 ± 0.006
x1 = 0.8094	806.52 ± 0.13	798.48 ± 0.13	790.3 ± 0.2	1173 ± 1	0.602 ± 0.006	0.54 ± 0.006
x1 = 0.9051	821.03 ± 0.12	812.95 ± 0.13	804.7 ± 0.2	1186.3 ± 0.8	0.618 ± 0.006	0.554 ± 0.006
x1 = 1	836.34 ± 0.11	828.21 ± 0.12	819.9 ± 0.2	1201.4 ± 0.8	0.636 ± 0.006	0.571 ± 0.006
